Assay results as given in the NIST ThermoML archive (doi:10.1016/j.tca.2004.09.012).
± gives the expanded uncertainty stated by the source.

How the values were obtained:
[1] = 298.15 K; 101.33 kPa; Liquid
[2] = excess molar enthalpy (molar enthalpy of mixing); xn = mol fraction of the nth substance listed; conditions: 298.15 K, 101.3 kPa, Liquid

With `CC(=O)CC(C)C` [4-methylpentan-2-one] the mass density [1] was 796.19 ± 0.63 kg/m3.
For `CC(=O)CC(C)C` [4-methylpentan-2-one] + CCCCCCO, the excess molar enthalpy ([2]; x1 = 0.0995) was 0.134 ± 0.00311 kcal/mol, the excess molar enthalpy ([2]; x1 = 0.2004) was 0.234 ± 0.00526 kcal/mol and the excess molar enthalpy ([2]; x1 = 0.3015) was 0.302 ± 0.00645 kcal/mol. It also gave an excess molar enthalpy ([2]; x1 = 0.4029) of 0.344 ± 0.00741 kcal/mol, an excess molar enthalpy ([2]; x1 = 0.5082) of 0.361 ± 0.00765 kcal/mol and an excess molar enthalpy ([2]; x1 = 0.5096) of 0.36 ± 0.00765 kcal/mol. It also gave an excess molar enthalpy ([2]; x1 = 0.6091) of 0.35 ± 0.00741 kcal/mol, an excess molar enthalpy ([2]; x1 = 0.7086) of 0.313 ± 0.00669 kcal/mol and an excess molar enthalpy ([2]; x1 = 0.8049) of 0.248 ± 0.0055 kcal/mol. It also gave an excess molar enthalpy ([2]; x1 = 0.903) of 0.144 ± 0.00335 kcal/mol.
For `CC(=O)CC(C)C` [4-methylpentan-2-one] + CCCCCO, the excess molar enthalpy ([2]; x1 = 0.1008) was 0.13 ± 0.00311 kcal/mol, the excess molar enthalpy ([2]; x1 = 0.2043) was 0.224 ± 0.00502 kcal/mol and the excess molar enthalpy ([2]; x1 = 0.304) was 0.286 ± 0.00621 kcal/mol. The excess molar enthalpy ([2]; x1 = 0.403) was 0.322 ± 0.00693 kcal/mol, the excess molar enthalpy ([2]; x1 = 0.4035) was 0.324 ± 0.00693 kcal/mol and the excess molar enthalpy ([2]; x1 = 0.503) was 0.341 ± 0.00717 kcal/mol. For the same compound, the excess molar enthalpy ([2]; x1 = 0.5035) was 0.337 ± 0.00717 kcal/mol, the excess molar enthalpy ([2]; x1 = 0.6017) was 0.334 ± 0.00717 kcal/mol and the excess molar enthalpy ([2]; x1 = 0.7007) was 0.303 ± 0.00645 kcal/mol. The excess molar enthalpy ([2]; x1 = 0.7996) was 0.242 ± 0.00526 kcal/mol and the excess molar enthalpy ([2]; x1 = 0.9002) was 0.144 ± 0.00335 kcal/mol.
`CC(=O)CC(C)C` [4-methylpentan-2-one] + CCCCO gave an excess molar enthalpy ([2]; x1 = 0.1005) of 0.124 ± 0.00287 kcal/mol, an excess molar enthalpy ([2]; x1 = 0.1998) of 0.212 ± 0.00478 kcal/mol and an excess molar enthalpy ([2]; x1 = 0.2999) of 0.272 ± 0.00598 kcal/mol. It also gave an excess molar enthalpy ([2]; x1 = 0.3967) of 0.312 ± 0.00669 kcal/mol, an excess molar enthalpy ([2]; x1 = 0.3996) of 0.309 ± 0.00669 kcal/mol and an excess molar enthalpy ([2]; x1 = 0.4967) of 0.331 ± 0.00717 kcal/mol. It also gave an excess molar enthalpy ([2]; x1 = 0.5978) of 0.326 ± 0.00693 kcal/mol, an excess molar enthalpy ([2]; x1 = 0.6981) of 0.297 ± 0.00645 kcal/mol and an excess molar enthalpy ([2]; x1 = 0.7978) of 0.238 ± 0.00526 kcal/mol. It also gave an excess molar enthalpy ([2]; x1 = 0.9006) of 0.14 ± 0.00335 kcal/mol.
In the case of `CC(=O)CC(C)C` [4-methylpentan-2-one] + CCCO, the excess molar enthalpy ([2]; x1 = 0.0797) is reported as 0.0934 ± 0.00237 kcal/mol, the excess molar enthalpy ([2]; x1 = 0.1587) is reported as 0.164 ± 0.00382 kcal/mol and the excess molar enthalpy ([2]; x1 = 0.2384) is reported as 0.22 ± 0.00478 kcal/mol. For the same compound, the excess molar enthalpy ([2]; x1 = 0.3192) was 0.262 ± 0.00574 kcal/mol, the excess molar enthalpy ([2]; x1 = 0.3901) was 0.29 ± 0.00621 kcal/mol and the excess molar enthalpy ([2]; x1 = 0.4948) was 0.31 ± 0.00669 kcal/mol. It also gave an excess molar enthalpy ([2]; x1 = 0.5955) of 0.307 ± 0.00669 kcal/mol, an excess molar enthalpy ([2]; x1 = 0.6981) of 0.281 ± 0.00598 kcal/mol and an excess molar enthalpy ([2]; x1 = 0.8004) of 0.225 ± 0.00502 kcal/mol. It also gave an excess molar enthalpy ([2]; x1 = 0.9012) of 0.135 ± 0.00311 kcal/mol.
`CC(=O)CC(C)C` [4-methylpentan-2-one] + CCO gave an excess molar enthalpy ([2]; x1 = 0.0772) of 0.0649 ± 0.00179 kcal/mol, an excess molar enthalpy ([2]; x1 = 0.1571) of 0.122 ± 0.00287 kcal/mol and an excess molar enthalpy ([2]; x1 = 0.2369) of 0.169 ± 0.00382 kcal/mol. It also gave an excess molar enthalpy ([2]; x1 = 0.2947) of 0.208 ± 0.00454 kcal/mol, an excess molar enthalpy ([2]; x1 = 0.3977) of 0.251 ± 0.0055 kcal/mol and an excess molar enthalpy ([2]; x1 = 0.5) of 0.279 ± 0.00598 kcal/mol. For the same compound, the excess molar enthalpy ([2]; x1 = 0.5995) was 0.287 ± 0.00621 kcal/mol, the excess molar enthalpy ([2]; x1 = 0.6981) was 0.273 ± 0.00598 kcal/mol and the excess molar enthalpy ([2]; x1 = 0.7954) was 0.232 ± 0.00502 kcal/mol. The excess molar enthalpy ([2]; x1 = 0.897) was 0.149 ± 0.00359 kcal/mol.
`CC(=O)CC(C)C` [4-methylpentan-2-one] + CO gave an excess molar enthalpy ([2]; x1 = 0.0523) of 0.034 ± 0.00232 kcal/mol, an excess molar enthalpy ([2]; x1 = 0.0998) of 0.0604 ± 0.00335 kcal/mol and an excess molar enthalpy ([2]; x1 = 0.1502) of 0.0839 ± 0.0043 kcal/mol. For the same compound, the excess molar enthalpy ([2]; x1 = 0.2002) was 0.105 ± 0.00526 kcal/mol, the excess molar enthalpy ([2]; x1 = 0.2495) was 0.126 ± 0.00598 kcal/mol and the excess molar enthalpy ([2]; x1 = 0.2954) was 0.159 ± 0.00741 kcal/mol. The excess molar enthalpy ([2]; x1 = 0.4019) was 0.192 ± 0.0086 kcal/mol, the excess molar enthalpy ([2]; x1 = 0.5037) was 0.209 ± 0.00932 kcal/mol and the excess molar enthalpy ([2]; x1 = 0.6059) was 0.211 ± 0.00932 kcal/mol. For the same compound, the excess molar enthalpy ([2]; x1 = 0.707) was 0.195 ± 0.00884 kcal/mol, the excess molar enthalpy ([2]; x1 = 0.8119) was 0.155 ± 0.00717 kcal/mol and the excess molar enthalpy ([2]; x1 = 0.908) was 0.0917 ± 0.00454 kcal/mol.
Compound `CCCCO` [butan-1-ol] has a mass density [1] of 805.75 ± 0.69 kg/m3.
`CCO` [ethanol] gave a mass density [1] of 785.15 ± 0.58 kg/m3.
With `CCCCCCO` [hexan-1-ol] the mass density [1] was 815.2 ± 0.99 kg/m3.
`CO` [methanol] showed a mass density [1] of 786.5 ± 0.61 kg/m3.
For `CCCCCO` [pentan-1-ol], the mass density [1] was 810.88 ± 0.99 kg/m3.
For `CCCO` [propan-1-ol], the mass density [1] was 799.51 ± 0.57 kg/m3.
